According to ChEMBL document CHEMBL1152569, “Synthesis, structure-affinity relationships, and modeling of AMDA analogs at 5-HT2A and H1 receptors: structural factors contributing to selectivity” (Bioorg Med Chem, 2009):

Columns and labels:
Histamine H1 receptor = Histamine H1 receptor (Homo sapiens, UniProt P35367); assay: Displacement of [3H]chlorphniramine from human histamine H1 receptor expressed in cells; format: cell-based
[1] = target: 5-hydroxytryptamine receptor 2A (Homo sapiens, UniProt P28223); assay: Displacement of [3H]ketanserin from human 5HT2A receptor expressed in cells; format: cell-based
Sequence of 5-hydroxytryptamine receptor 2A (P28223 whole entry): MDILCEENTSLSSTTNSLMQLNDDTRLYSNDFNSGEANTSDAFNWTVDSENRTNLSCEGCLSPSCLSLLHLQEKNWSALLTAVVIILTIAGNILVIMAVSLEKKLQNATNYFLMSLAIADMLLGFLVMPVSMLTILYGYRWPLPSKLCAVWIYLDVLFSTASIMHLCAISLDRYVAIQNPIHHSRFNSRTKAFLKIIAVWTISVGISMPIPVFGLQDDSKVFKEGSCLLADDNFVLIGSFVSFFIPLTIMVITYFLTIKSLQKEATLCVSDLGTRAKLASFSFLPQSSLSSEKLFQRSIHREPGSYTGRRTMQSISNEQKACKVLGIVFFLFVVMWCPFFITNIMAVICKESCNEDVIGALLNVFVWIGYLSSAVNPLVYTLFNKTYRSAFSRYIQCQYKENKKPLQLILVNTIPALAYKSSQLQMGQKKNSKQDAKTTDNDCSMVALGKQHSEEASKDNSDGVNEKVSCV

Sequence of Histamine H1 receptor (P35367 whole entry): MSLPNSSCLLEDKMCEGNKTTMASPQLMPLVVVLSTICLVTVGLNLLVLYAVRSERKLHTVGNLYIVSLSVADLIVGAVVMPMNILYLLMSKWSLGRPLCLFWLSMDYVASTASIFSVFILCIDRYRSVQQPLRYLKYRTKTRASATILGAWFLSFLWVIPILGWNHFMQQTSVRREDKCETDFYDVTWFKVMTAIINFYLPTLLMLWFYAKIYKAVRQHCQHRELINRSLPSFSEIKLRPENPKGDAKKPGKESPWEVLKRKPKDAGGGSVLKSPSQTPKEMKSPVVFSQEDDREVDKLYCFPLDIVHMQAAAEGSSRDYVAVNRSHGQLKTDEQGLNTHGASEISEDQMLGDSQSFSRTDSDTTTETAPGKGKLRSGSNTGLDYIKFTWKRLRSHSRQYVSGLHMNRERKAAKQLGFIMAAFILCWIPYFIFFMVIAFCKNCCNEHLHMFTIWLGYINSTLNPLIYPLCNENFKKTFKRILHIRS

Compound	Ki (Histamine H1 receptor) [nM]	Ki [1] [nM]
CNCCCC1c2ccccc2Cc2ccccc21	3	–
NCCC(c1ccccc1)c1ccccc1	2760	> 10000
CN(C)CC1c2ccccc2Cc2ccccc21	25	–
CNCCC1c2ccccc2Cc2ccccc21	48	92
CNCCCC(c1ccccc1)c1ccccc1	386	754
CN(C)CCCC(c1ccccc1)c1ccccc1	70	1150
NCCCC1c2ccccc2Cc2ccccc21	175	–
CN(C)CCCC1c2ccccc2Cc2ccccc21	0.5	–
CN(C)CCC1c2ccccc2Cc2ccccc21	6	84
NCC(c1ccccc1)c1ccccc1	> 10000	–
NCCCC(c1ccccc1)c1ccccc1	1670	2590
CNCC(c1ccccc1)c1ccccc1	> 10000	> 10000
NCC1c2ccccc2Cc2ccccc21	197	–
CNCC1c2ccccc2Cc2ccccc21	189	–
CN(C)CCC(c1ccccc1)c1ccccc1	75	1640
CN(C)CC(c1ccccc1)c1ccccc1	5170	7360
CNCCC(c1ccccc1)c1ccccc1	64	1500
NCCC1c2ccccc2Cc2ccccc21	137	–
